Drawing on patent US11560370B1, “5-membered heteroaryl carboxamide compounds for treatment of HBV” (Assembly Biosciences, Inc., priority 2018, dated 2023), this text covers EC50 for 25 molecules.

Molecules are shown by their SMILES. Like-named read-outs stand apart in the source and are kept apart here. Where only a bound is given, the exact number is not on record here.

The experiment concerns HBV. Briefly: Viral production from HepAD38 cells, viral load by qPCR of HBV core sequence. The settings on record: 5 days, supernatant HBV DNA by qPCR, read-out: Viral Load EC50 Activity range. The format is cell-based. The protocol: Assay Measuring Activity of Test Compounds on Viral Production from HepAD38 Cells
HepAD38 cells grown in a T-150 flask (Corning, cat #: 430825) with Growth Medium (DMEM/F12 (1:1) (Hyclone, cat #: SH30023.02), 1× Pen/Strep (Invitrogen, cat #: 15140-122), 10% FBS (Tissue Culture Biologics, cat #: 101), 250 μg/mL G418 (Alfa Aesar, cat #: J62671), 1 μg/mL Tetracycline (Teknova, cat #: T3320)) were detached with 0.25% trypsin-EDTA to (Invitrogen, cat #: 25200-056). Tetracycline-free treatment medium (15 mL DMEM/F12 (1:1) 1× Pen/step, with 2% FBS, Tet-system approved (Clontech, cat #: 631106) were then added to mix, transferred into a 50 ml conical tube (Falcon, cat #: 21008-918,) and spun at 1300 rpm for 5 min. Pelleted cells were then re-suspended/washed with 50 mL of 1×DPBS (Invitrogen, cat #: 14190-136) 2 times and 50 mL treatment medium twice. HepAD38 cells were then re-suspended with 10 mL of treatment medium, syringed and counted. Wells of 96-well clear bottom TC plate (Corning, cat #: 3904,) were seeded at 50,000 cells/well in 180 μL of treatment medium, and 20 μL of either 10% DMSO (Sigma, cat #: D4540) as controls or a 10× solution of test compounds in 10% DMSO in treatment media was added for a final compound concentration starting at 10 μM, and plates were incubated in 5% CO2 incubator at 37° C. for 5 days.
Subsequently viral load production was assayed by quantitative PCR (qPCR) of the HBV core sequence. PCR reaction mixture containing forward primers HBV-f 5′-CTGTGCCTTGGGTGGCTTT-3′ (IDT DNA), Reverse primers HBV-r 5′-[…]-3′ (IDT DNA), Fluorescent TaqMan™ Probes HBV-probe 5′-FAM/AGCTCCAAA/ZEN/[…]/3IABkFQ-3′ (IDT DNA), 10 μL/well of PerfeCTa® qPCR ToughMix® (Quanta Biosciences, Cat #: 95114-05K), and 6 μL/well of DEPC water (Alfa Aesar, cat #: J62087) was prepared. […] of supernatant was added to 16 μL of the reaction mixture in a qPCR plate (Applied Biosytems, Cat #: 4309849), sealed with a film (Applied Biosystems, Cat #: 4311971), centrifuged for a few seconds, and subsequently run on an Applied Biosystems VIIA7. The PCR mixture was incubated at 45° C. for 5 min, then 95° C. for 10 min, followed by 40 cycles of 10 seconds at 95° C. and 20 seconds at 60° C. Viral load was quantified against known HBV DNA standards by using ViiA™ 7 Software. Viral load in the supernatant from wells with treated cells were compared against viral load in supernatant from DMSO control wells (>3 per plate). Cell viability assay was performed with CellTiter-Glo Luminescent Cell Viability Assay (Promega, cat #: G7573) with modification. Mixed appropriate amount of CellTiter-Glo (CTG) 1×DPBS in a 1:1 ratio, added 100 uL of the mixture to each well followed completely removal of all supernatant in each well without touching cell surface. Incubated the plate at room temperature for 10 min on an orbital shaker, and then read the plate with a plate reader (TECAN M1000 or Envision). EC50 or CC50 values were calculated through curve-fitting of the four-parameter nonlinear-logistic-regression model (GraphPad Prism or Dotmatics). CC50 values were all >10 μM.

Setting [1] is: Hepatitis B virus, HePAD38, 120 h.

Broadly, the EC50 is the concentration that produces a half-maximal response. For `CC(C)S(=O)(=O)N1CC2CC(c3nn(C)c(N)c3C(=O)Nc3ccc(F)c(Cl)c3)CC2C1` (stereo not shown) [AIA-085, 5-Amino-N-(3-chloro-4-fluorophenyl)-3-(2-(isopropylsulfonyl)octahydrocyclopentyl[c]pyrrol-5-yl)-1-methyl-1H-pyrazole-4-carboxamide], the 50% effective concentration (EC50) under setting [1] is less than 100 nM.

For the molecule `Cn1nc(C2CC3CC(O)(CS(=O)(=O)C(C)(C)C)CC3C2)c(C(=O)Nc2ccc(F)c(Cl)c2)c1N` (single isomer, unassigned) [AIA-260-1, 5-Amino-3-(5-((tert-butylsulfonyl)methyl)-5-hydroxyoctahydropentalen-2-yl)-N-(3-chloro-4-fluorophenyl)-1-methyl-1H-pyrazole-4-carboxamide], the EC50 under setting [1] was less than 100 nM.

With `Cn1nc(C2CC3CC(N4CCNC4=O)CC3C2)c(C(=O)Nc2ccc(F)c(Cl)c2)c1N` (stereo not shown) [AIA-047], the EC50 is less than 100 nM.

`CSC1CC2CC(c3nn(C)c(N)c3C(=O)Nc3ccc(F)c(Cl)c3)CC2C1` (stereo not shown) [AIA-028]: the EC50 is less than 100 nM.

Turning to `COc1cc(-c2nccn2C)ccc1C1CCC(c2nn(C)c(N)c2C(=O)Nc2ccc(F)c(Cl)c2)C1` (single isomer, unassigned) [AIA-367-1, 5-Amino-N-(3-chloro-4-fluorophenyl)-3-(3-(2-methoxy-4-(1-methyl-1H-imidazol-2-yl)phenyl)cyclopentyl)-1-methyl-1H-pyrazole-4-carboxamide], under setting [1], the EC50 lay in the range of 100 to 500 nM.

Consider `Cn1nc(C2CC3CNCC3C2)c(C(=O)Nc2ccc(F)c(Cl)c2)c1N` (stereo not shown) [AIA-006], for which the concentration giving a half-maximal response (EC50) is 500 to 10000 nM.

With `COc1cc(-c2c[nH]cn2)ccc1C1CCC(c2nn(C)c(N)c2C(=O)Nc2ccc(F)c(Cl)c2)C1` (single isomer, unassigned) [AIA-366-2, 3-(3-(4-(1H-Imidazol-4-yl)-2-methoxyphenyl)cyclopentyl)-5-amino-N-(3-chloro-4-fluorophenyl)-1-methyl-1H-pyrazole-4-carboxamide], the EC50 under setting [1] is less than 100 nM.

As for `Cn1nc([C@H]2CC3C/C(=N/O)C[C@@H]3C2)c(C(=O)Nc2ccc(F)c(Cl)c2)c1N` (stereo partly shown) [AIA-032-B], the EC50 is less than 100 nM.

`Cn1nc(C2CC3CC(O)(CSCCN4CCOCC4)CC3C2)c(C(=O)Nc2ccc(F)c(Cl)c2)c1N` (single isomer, unassigned) [AIA-284-1, 5-Amino-N-(3-chloro-4-fluorophenyl)-3-(5-hydroxy-5-(((2-morpholinoethyl)thio)methyl)octahydropentalen-2-yl)-1-methyl-1H-pyrazole-4-carboxamide]: the 50% effective concentration (EC50) under setting [1] was less than 100 nM.

`Cn1nc(C2CC3CC(OC(C)(C)C)CC3C2)c(C(=O)Nc2ccc(F)c(Cl)c2)c1N` (stereo not shown) [AIA-058, 5-Amino-3-(5-(tert-butoxy)octahydropentalen-2-yl)-N-(3-chloro-4-fluorophenyl)-1-methyl-1H-pyrazole-4-carboxamide]: under setting [1], the EC50 was less than 100 nM.

`COc1ccccc1C1CCC(c2nn(C)c(N)c2C(=O)Nc2ccc(F)c(Cl)c2)C1` (single isomer, unassigned) [AIA-275D, 5-Amino-N-(3-chloro-4-fluorophenyl)-3-(3-(2-methoxyphenyl)cyclopentyl)-1-methyl-1H-pyrazole-4-carboxamide]: the concentration giving a half-maximal response (EC50) was less than 100 nM.

On to `Cn1nc(C2CC3CC(O)(CS(=O)(=O)C4CC4)CC3C2)c(C(=O)Nc2ccc(F)c(Cl)c2)c1N` (stereo not shown) [AIA-252-1, 5-Amino-N-(3-chloro-4-fluorophenyl)-3-(5-((cyclopropylsulfonyl)methyl)-5-hydroxyortahydropentalen-2-yl)-1-methyl-1H-pyrazole-4-carboxamide], for which the EC50 under setting [1] is less than 100 nM.

Take `CC(=O)NC1CC2CC(c3nn(C)c(N)c3C(=O)Nc3ccc(F)c(Cl)c3)CC2C1` (stereo not shown) [AIA-288]: the EC50 was less than 100 nM.

In the case of `COc1ccc([C@@H]2CC[C@@H](c3nn(C)c(N)c3C(=O)Nc3ccc(F)c(Cl)c3)C2)cc1` [AIA-003-D, 5-amino-N-(3-chloro-4-fluorophenyl)-3-((1R,3R)-3-(4-methoxyphenyl)cyclopentyl)-1-methyl-1H-pyrazole-4-carboxamide], the EC50 under setting [1] was less than 100 nM.

For the molecule `Cn1nc(C2CC3CC(O)(CSCC(F)(F)F)CC3C2)c(C(=O)Nc2ccc(F)c(Cl)c2)c1N` (single isomer, unassigned) [AIA-258-2, 5-Amino-N-(3-chloro-4-fluorophenyl)-3-(5-hydroxy-5-(((2,2,2-trifluoroethyl)thio)methyl)octahydropentalen-2-yl)-1-methyl-1H-pyrazole-4-carboxamide], under setting [1], the concentration for a half-maximal effect (EC50) was less than 100 nM.

`Cn1nc(C2CC3CC(NS(=O)(=O)C(F)(F)F)CC3C2)c(C(=O)Nc2ccc(F)c(Cl)c2)c1N` (stereo not shown) [AIA-086]: the concentration giving a half-maximal response (EC50) was less than 100 nM.

As for `CC(N1CC2CC(c3nn(C)c(N)c3C(=O)Nc3ccc(F)c(Cl)c3)CC2C1)C(F)(F)F` (stereo not shown) [AIA-054, 5-Amino-N-(3-chloro-4-fluorophenyl)-1-methyl-3-(2-(1,1,1-trifluoropropan-2-yl)octahydrocyclopenta[c]pyrrol-5-yl)-1H-pyrazole-4-carboxamide], the EC50 under setting [1] was less than 100 nM.

In the case of `Cn1nc(C2CC3CC(O)(CN4CCOCC4)CC3C2)c(C(=O)Nc2ccc(F)c(Cl)c2)c1N` (stereo not shown) [AIA-364-1, 5-Amin o-N-(3-chloro-4-fluorophenyl)-3-(5-hydroxy-5-(morpholinomethyl)octahydropentalen-2-yl)-1-methyl-1H-pyrazole-4-carboxamide], under setting [1], the concentration giving a half-maximal response (EC50) lay within 500 to 10000 nM.

As to `CCS(=O)(=O)CC1(O)CC2CC(c3nn(C)c(N)c3C(=O)Nc3ccc(F)c(Cl)c3)CC2C1` (single isomer, unassigned) [AIA-250-1, 5-Amino-N-(3-chloro-4-fluorophenyl)-3-(5-((ethylsulfonyl)nethyl)-5-hydroxyoctahydropentalen-2-yl)-1-methyl-1H-pyrazole-4-carboxamide], under setting [1], the EC50 was less than 100 nM.

Turning to `Cn1cc(C2CCC(c3nn(C)c(N)c3C(=O)Nc3ccc(F)c(Cl)c3)C2)cn1` (single isomer, unassigned) [AIA-004-A, 5-Amino-N-(3-chloro-4-fluorophenyl)-1-methyl-3-(3-(1-methyl-1H-pyrazol-4-yl)cyclopentyl)-1H-pyrazole-4-carboxamide], the EC50 is less than 100 nM.

Take `Cn1nc(C2CC3CC(O)(CN4CCOCC4)CC3C2)c(C(=O)Nc2ccc(F)c(Cl)c2)c1N` (single isomer, unassigned) [AIA-364-2, 5-Amino-N-(3-chloro-4-fluorophenyl)-3-(5-hydroxy-5-(morpholinomethyl)octahydropentalen-2-yl)-1-methyl-1H-pyrazole-4-carboxamide]: the half-maximal effective concentration (EC50) under setting [1] fell in the range of 100 to 500 nM.

On to `Cn1nc(C2CC3CC(O)(CS(=O)(=O)CCCN4CCCCC4)CC3C2)c(C(=O)Nc2ccc(F)c(Cl)c2)c1N` (single isomer, unassigned) [AIA-349-b, 5-Amino-N-(3-chloro-4-fluorophenyl)-3-(5-hydroxy-5-(((3-(piperidin-1-yl)propyl)sulfonyl)methyl)octahydropentalen-2-yl)-1-methyl-1H-pyrazole-4-carboxamide], for which the concentration giving a half-maximal response (EC50) under setting [1] lay in the range of 100 to 500 nM.

With `Cn1nc(C2CC3CC(C(=O)O)CC3C2)c(C(=O)Nc2ccc(F)c(Cl)c2)c1N` (stereo not shown) [AIA-014], the EC50 is less than 100 nM.

With `COc1cc(-c2nccn2C)ccc1C1CCC(c2nn(C)c(N)c2C(=O)Nc2ccc(F)c(Cl)c2)C1` (single isomer, unassigned) [AIA-367-2, 5-Amino-N-(3-chloro-4-fluorophenyl)-3-(3-(2-methoxy-4-(1-methyl-1H-imidazol-2-yl)phenyl)cyclopentyl)-1-methyl-1H-pyrazole-4-carboxamide], the EC50 is less than 100 nM.

Regarding `Cn1nc(C2CCC(c3ccc(F)cc3)C2)c(C(=O)Nc2ccc(F)c(Cl)c2)c1N` (stereo not shown) [AIA-281, 5-Amino-N-(3-chloro-4-fluorophenyl)-3-(3-(4-fluorophenyl)cyclopentyl)-1-methyl-1H-pyrazole-4-carboxamide], under setting [1], the EC50 is less than 100 nM.
